Laboratory results as given in patent US20140093935A1, “CHARGED TRIPLET-STATE QUENCHERS FOR MITIGATION OF PHOTO-INDUCED DAMAGE” (Pacific Biosciences of California, Inc., priority 2012, published 2014).

How the values were obtained:
phi29 polymerase enzyme = assay: Sequencing-by-synthesis assay, polymerase survival as a function of number of bases sequenced; type: biochemical
From the text: In various embodiments, the amount of photo-induced damage that occurs in a reaction mixture of the invention is detectably less than the amount of photo-induced damage that occurs in the absence of a photoprotective additive according to Formula I or Formula II. Photo-induced damage can be measured in different ways, depending on the particular analytical reaction. One way is by monitoring blinkiness of a fluorescent dye in the reaction, as further explained above. In other embodiments, the amount of photo-induced damage is measured as a length of time a reaction can proceed, e.g., the survival time for an enzyme catalyzing a reaction. For example, in a nucleic acid sequencing-by-synthesis reaction, a proxy for the level of photo-induced damage can be the length of the nascent strand synthesized and/or the length of the sequencing read generated. […]
Experiments were conducted using a single-molecule, real-time (SMRT®) sequencing instrument. […] Sequencing was initiated and reactions were monitored in real time. The fluorescence emissions were recorded, processed, and analyzed.
Further analysis of the fluorescent emissions included measurement of polymerase enzyme survival in the reaction as a function of number of bases sequenced. Another measure of photo-induced damage was the average read length produced in the sequencing reaction.

fluorophore blinking = assay: Sequencing-by-synthesis assay, interpulse duration / very short dark periods (blinkiness); type: biochemical; conditions: 3 μM and 5 μM of compound compared with 1 mM of the charged nitrophenyl photoprotective moiety; FIG. 7
Protocol: One measure of photoprotective benefit is monitoring “blinkiness” of dyes in a reaction mixture. For example, in a reaction in which dye-labeled reactants are being observed as they cyclically interact with an unlabeled reactant, the time between interaction events is a length of time during which no dye is present, or a “dark” period. Given certain reaction parameters, e.g., diffusion rates and concentration of the labeled reactant, a distribution of dark periods is measured that centers around a value that is an average time between interaction events. This distribution curve can be perturbed by dye blinking since such blinking introduces a very brief dark period during an interaction event. These blinking-induced dark periods introduce an aberrant peak in the dark period distribution resulting in a peak that is outside of the normal distribution and representing dark periods that are too short to be explained by the reaction parameters. Blinkiness is increased when a dye is excited to the triplet state and there is insufficient photo-induced damage mitigation to quickly return it to a non-triplet state. […]
Experiments were conducted using a single-molecule, real-time (SMRT®) sequencing instrument. […] Sequencing was initiated and reactions were monitored in real time. The fluorescence emissions were recorded, processed, and analyzed. […]

## O=C(CNc1cccc([N+](=O)[O-])c1)NCCCCCCOP(=O)(O)OP(=O)(O)OP(=O)(O)OP(=O)(O)OP(=O)(O)O [TSQ001-6C-5P]
phi29 polymerase enzyme; 1.5, 3, and 5 μM of compound compared with 1 mM of the charged nitrophenyl photoprotective moiety, FIG. 8
  increasing survival of a polymerase enzyme: more effective
phi29 polymerase enzyme; as compared to the photoprotective moiety alone, by various measures (data not shown)
  polymerase survival in a sequencing-by-synthesis reaction is increased: 15-25%
Fluorophore blinking
  reducing the incidence of very short dark periods (proxy for blinkiness): as effective
